In article PMC6522914, “Benzonate derivatives of acetophenone as potent α-glucosidase inhibitors: synthesis, structure–activity relationship and mechanism” (Journal of Enzyme Inhibition and Medicinal Chemistry, 2019):
Entries after “also recorded” stand apart in the source; their conditions may differ. Where two headings read alike, the source gives them in different places. Blank lines part the entries; values can stand above or below the molecule they belong to.

Columns and labels:
[1] = target: α-glucosidase (EC 3.2.1.20) (Saccharomyces cerevisiae, UniProt P53341); assay: α-Glucosidase inhibitory assay (pNPG substrate); format: biochemical; conditions: in vitro
Sequence of α-glucosidase (EC 3.2.1.20) (P53341 whole entry): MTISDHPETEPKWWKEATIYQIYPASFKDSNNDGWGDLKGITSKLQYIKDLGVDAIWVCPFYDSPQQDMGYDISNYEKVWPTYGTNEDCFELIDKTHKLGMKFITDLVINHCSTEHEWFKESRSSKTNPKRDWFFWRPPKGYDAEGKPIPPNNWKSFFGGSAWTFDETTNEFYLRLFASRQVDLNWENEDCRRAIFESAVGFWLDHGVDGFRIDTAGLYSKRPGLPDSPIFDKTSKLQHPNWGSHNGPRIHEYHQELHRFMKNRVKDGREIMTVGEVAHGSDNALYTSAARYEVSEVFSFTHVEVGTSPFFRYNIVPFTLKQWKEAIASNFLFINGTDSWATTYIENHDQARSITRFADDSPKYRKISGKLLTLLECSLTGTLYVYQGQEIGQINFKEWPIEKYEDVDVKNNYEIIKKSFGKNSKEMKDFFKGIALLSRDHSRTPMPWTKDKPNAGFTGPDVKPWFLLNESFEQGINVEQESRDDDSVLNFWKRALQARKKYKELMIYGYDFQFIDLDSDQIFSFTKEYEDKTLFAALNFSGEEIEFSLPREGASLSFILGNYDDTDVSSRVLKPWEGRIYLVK
Protocol: The α-glucosidase inhibitory assay was performed according to a slightly modified method previously reported[21]^,[22]. In brief, a series of reaction solutions, including a fixed amount of α-glucosidase (10 unit/mL 3.75 µL), different concentrations of inhibitors (the tested compounds or positive controls, 37.5 µL), and sodium phosphate buffer (PBS, […], 0.1 M, pH 6.8), were incubated at 37 °C for 10 min. To initiate the reaction, 112.5 µL of pNPG (6.0 mM, as a substrate) was added into the pre-incubated mixtures, and the final volume of reaction system was kept at 750 µL. The p-nitrophenol released from pNPG substrate was used as the target substance to quantify the enzymatic activity. […] The negative control was prepared by adding PBS instead of α-glucosidase, the blank was prepared by adding solvent instead of tested compounds, and the inhibition rate was calculated as the following Equation (1). (1) (ODcontrol−ODcontrol blank)−(ODtest−ODtest blank)/ODcontrol−ODcontrol blank×100%

[2] = Sucrose-loading test (postprandial blood glucose); format: in vivo, Kunming mice; conditions: mice, 20 mg/kg by gavage, sucrose 2.5 g/kg, 0–120 min
Protocol: The carbohydrate loading test was conducted according as Kato et al.[23] and Han et al.[24] reported, with slight modifications. Fifteen male Kunming mice (35–40 g) after an overnight fast were randomly divided into three groups (five mice per group). […] A blank control group was loaded with 0.5% CMC–Na solution only. The blood samples were collected from the mice’s tail vein at 0, 15, 30, 60, 90, and 120 min, and the blood glucose levels were determined by a glucose detection kit.

intestinal α-glucosidase = assay: Everted intestinal sleeve assay; design: species or system Sprague–Dawley rats
Protocol: ^1H NMR and ^13 C NMR spectra were carried out using a 500 MHz Avance spectrometer (Bruker, USA) or a Varian Mercury 400 MHz spectrometer. Chemical shifts were measured relative to the residual solvent peaks of CDCl3 with tetramethylsilane as the internal standard. High-resolution mass spectra were recorded on an AB SCIEX Triple TOF 5600+ spectrometer. The in vitro inhibitory activity and kinetic assay of α-glucosidase were measured by a microplate reader (Synergy HTX, BioTek Instruments Inc., Winooski, VT, USA). Fluorescence spectra were conducted on a spectrofluorometer (LS55, Perkin Elmer Inc., Waltham, MA, USA). […] Titration microcalorimetry measurement conducted on a Nano-ITC SV instrument (TA Instruments Ltd., UK). The surgeries were performed under anesthesia and all efforts were made to minimise animal suffering. The blood glucose levels were determined via a glucose detection kit (Robio Co., Ltd., Shanghai, China). […] The concentrations of glucose in the soaking solution and intestinal sleeve were detected using S-10 biosensor analyzer (Sieman Technology Co., Ltd., Shenzhen, China). All reaction progress was monitored by thin-layer chromatography (TLC) on silica gel GF254 (Qingdao Haiyang Chemical Co., Ltd., Qingdao, China) with ultraviolet detection. Reagents were purchased from commercial sources (Bodi Chemical Co., Ltd., Tianjin, China; Aladdin Industrial Co., Ltd., Shanghai, China), and used as received. α-Glucosidase (EC 3.2.1.20, Sigma-Aldrich Chemical, St. Louis, MO, USA); 4-nitrophenyl-α-D-glucopyranoside (pNPG) (99%, Macklin Biochemical Co., Ltd, Shanghai, China).
After a 12-h fasting, the jejunum of 200–220 g Sprague-Dawley […] was obtained. Then the proximal jejunum was flushed with pre-cold isotonic saline (4 °C) and cut into 3 cm-long segments. Each segment was weighed separately, everted and both ends were secured by tying knots. Then the sleeves were incubated (90 min at 37 °C) in mammalian Ringer’s solution containing sucrose (1.5 mM) and an appropriate concentration of the inhibitor (0.17 mM). Following the incubation, the concentrations of glucose in the soaking solution and intestinal sleeves were tested with biosensor analyzer (S-10). The total glucose concentration was calculated as glucose per gram of gut weight (mmol/g).

α-glucosidase [3] = target: T1, α-glucosidase (Saccharomyces cerevisiae, UniProt P53341); assay: Isothermal titration calorimetry; format: binding; conditions: ITC, 25 °C
T1 sequence (P53341 whole entry): as above
Protocol: Titration of the compound 7u into the α-glucosidase was performed at 25 °C. All the solutions were prepared in 0.1 M PBS (pH 6.8). The α-glucosidase solution (2.5μM) was placed in the 1.3 ml sample cell of the calorimeter, and the injection syringe was loaded with the solution of 7u (30μM, in 0.05% DMSO). The solution of compound 7u was titrated into the sample cell at 25 °C as a progression of 25 injections of 10μL. The time delay between each two injections was 300 s. To ensure comprehensive mixing, all the sample was stirred at a speed of 300 rpm during experiment. The control experiments included the titration of the compound 7u solution into 0.1 M PBS (pH 6.8)[33–35].

α-glucosidase [4] = target: T1, α-glucosidase; assay: Circular dichroism measurement; format: binding; conditions: 7u 0–4 µM, α-glucosidase 2 µM, 25 °C
Protocol: The CD measurements of α-glucosidase in the presence of compound 7u were conducted in far–UV region (190–250 nm), under nitrogen environment using a 1.0 mm path length cuvette. The concentration of α-glucosidase was maintained constant (2 µM) while the 7u concentration was varied as 0, 1, 2, and 4 µM. All observed CD spectra were recorded in 0.1 M PBS (pH 6.8) at 25 °C[13]^,[31].

α-glucosidase [5] = target: T1, α-glucosidase; assay: Fluorescence quenching and van't Hoff thermodynamics; format: binding; conditions: for ΔG^o: van't Hoff
Protocol: The steady state fluorescence emission spectra, were recorded between 300 and 500 nm at the excitation wavelength of 280 nm at three different temperatures (25, 31 and 37 °C), and both the excitation and emission slits were set at 2.5 nm. Compound 7u at different concentrations (from 0 to 6 µM) were added into the 3.0 ml solution containing a fixed amount of α-glucosidase (2μM). All of the mixtures were held for 5 min to equilibrate before measurements. The fluorescence spectra of buffer were subtracted as the background fluorescence.
(§1) The synchronous fluorescence spectra of α-glucosidase in the absence and presence of compound 7u were scanned by setting the excitation and emission wavelength intervals (Δλ) at 15 and 60 nm, respectively. To eradicate the probability of re-absorption and inner filter effects in UV absorption, all of the fluorescence data were corrected for absorption of exciting light and emitted light, based on the Equation S1[3]^,[13].

α-glucosidase [6] = target: T1, α-glucosidase; assay: Synchronous fluorescence spectra; format: binding; conditions: 7u 0–6 µM, 25 °C
Excerpt: as §1

α-glucosidase [7] = target: T1, α-glucosidase; assay: Kinetic analysis of inhibition type (Lineweaver–Burk / Michaelis–Menten); format: biochemical
Protocol: To further explore the inhibitory characteristic of this type of compounds, kinetic studies of the selected compound 7u were performed[3]^,[13]^,[26]. Different final concentrations (0.5, 1, 2, 4, and 8 µM) of the inhibitor 7u around the IC50 values were chosen. The concentration of α-glucosidase was kept at 1 µM, and the pNPG concentrations varied from 2.0 to 12.0 mM in the absence and presence of compound 7u. The type of inhibition was analyzed on the basis of the Michaelis–Menten constant (Km) and maximal rate (Vmax) of the enzyme. The parameters were determined via Lineweaver–Burk plots, which was obtained by plotting enzyme reaction velocity (ν) and substrate (pNPG), namely, 1/ν versus 1/[pNPG]. The secondary plot slope against [7u] was also determined. The protein concentration was determined according to the Bradford method[27] using bovine serum albumin as the standard.

α-glucosidase [8] = target: T1, α-glucosidase; conditions: cited from earlier work

α-glucosidase inhibitory activity (in words) [1]: lost the activity
Compound: CC(=O)c1cc(Br)c(OC(=O)CCCCBr)c(Br)c1O [7h]

inhibitory activity on intestinal α-glucosidase compared with acarbose (intestinal α-glucosidase; 0.17 mM): better than that of acarbose | total concentration of glucose (intestinal α-glucosidase; 0.17 mM inhibitor, sucrose 1.5 mM, 5–90 min, versus blank): much lower than that of the blank | glucose concentration in the intestinal sleeves (intestinal α-glucosidase; 0.17 mM inhibitor, sucrose 1.5 mM, versus blank): lower than that of blank | ΔG (α-glucosidase [3]): –39.04 kJ·mol^−1 | ΔH (α-glucosidase [3]): -23.901 kcal/mol | ΔS (α-glucosidase [3]): –204.50 J·mol^−1·K^−1 | ΔG (α-glucosidase [3]; listed as 7 u): -9.331 kcal/mol | ΔS (α-glucosidase [3]; listed as 7 u): −204.50 J·mol^−1·K^−1 | KSV (quenching constant) (α-glucosidase [5]; 25 °C): 5.00 ± 0.04 × 10^4 L·mol^−1 | n (number of binding sites) (α-glucosidase [5]; 25 °C): 1.23 | ΔG^o (α-glucosidase [5]; 25 °C): -7.698 ± 0.014 kcal/mol | KSV (quenching constant) (α-glucosidase [5]; 31 °C): 4.74 ± 0.03 × 10^4 L·mol^−1 | n (number of binding sites) (α-glucosidase [5]; 31 °C): 1.19 | ΔG^o (α-glucosidase [5]; 31 °C): -7.488 ± 0.0072 kcal/mol | KSV (quenching constant) (α-glucosidase [5]; 37 °C): 4.31 ± 0.02 × 10^4 L·mol^−1 | n (number of binding sites) (α-glucosidase [5]; 37 °C): 1.15 | ΔG^o (α-glucosidase [5]; 37 °C): -7.28 ± 0.0048 kcal/mol | quenching mechanism (α-glucosidase [5]; KSV versus temperature): static quenching mechanism | Kq (α-glucosidase [5]; fluorescence quenching): ~10^12 L·mol^−1·s^−1 | shift of maximum emission wavelength of Tyr residues (α-glucosidase [6]; Δλ = 15 nm): No evident shift | Vmax (α-glucosidase [7]; 7u 1 µM): 1.39 ± 0.02 µM/min | Vmax (α-glucosidase [7]; 7u 2 µM): 1.24 ± 0.01 µM/min | Vmax (α-glucosidase [7]; 7u 4 µM): 1.04 ± 0.01 µM/min | Vmax (α-glucosidase [7]; 7u 8 µM): 0.84 ± 0.02 µM/min | type of inhibition (α-glucosidase [7]; Lineweaver–Burk plot): mixed-type inhibition
Compound: CC(=O)c1cc(Br)c(OC(=O)c2ccccc2[N+](=O)[O-])c(Br)c1O [7u]
effect on postprandial blood glucose levels ([2]; 20 mg/kg): significantly attenuated postprandial blood glucose in mice; also recorded: obvious repressive effect on blood glucose concentrations at peaked 15 min | glucose concentration in the solution outside the intestinal sleeves (intestinal α-glucosidase; 0.17 mM inhibitor, sucrose 1.5 mM): decreased the glucose concentrations in the solution present outside the intestinal sleeves | CD negative bands at 209 and 220 nm (α-glucosidase [4]): both intensity of the negative bands decreased | shift of maximum emission wavelength of Trp residues (α-glucosidase [6]; Δλ = 60 nm): noticeable red shift (from 277.5 to 286.5 nm)

Compound: C[C@H]1O[C@H](O[C@H]2[C@H](O)[C@@H](O)[C@@H](O[C@H]3[C@H](O)[C@@H](O)C(O)O[C@@H]3CO)O[C@@H]2CO)[C@H](O)[C@@H](O)[C@@H]1N[C@H]1C=C(CO)[C@@H](O)[C@H](O)[C@H]1O (stereo partly shown) [Acarbose, acarbose, reference compound]
effect on postprandial blood glucose levels [2]: at lower level than the model group

Compound: CC(C)=CCC/C(C)=C/Cc1c(O)cc(O)c(C(=O)/C=C/c2ccc(O)cc2)c1O [compound 1, 3′-geranylchalconaringenin]
inhibition activity against α-glucosidase compared with acarbose (α-glucosidase [8]; ref Sun et al. 12): superior inhibition activity against α-glucosidase than acarbose

Compound: O=c1cc(-c2ccc(O)cc2)oc2cc(O)cc(O)c12 [compound 2, apigenin]
inhibition activity against α-glucosidase compared with acarbose (α-glucosidase [8]; ref Zeng et al. 13): superior inhibition activity against α-glucosidase than acarbose

Compound: CC(=O)c1cc(C)c(O)cc1O [compound 3, 2,4-dihydroxy-5-methylacetophenone]
α-glucosidase inhibitory activity (in words) [1]: considerable inhibitory activity against α-glucosidase in prescreen
